From article PMC5011342, “A high throughput drug screening assay to identify compounds that promote oligodendrocyte differentiation using acutely dissociated and purified oligodendrocyte precursor cells” (BMC Research Notes, 2016)
Read-outs that look alike come from different tables or passages of the source.

How the values were obtained:
[1] = tested on: expanded OPCs; assay: cells; conditions: for viability at 0.1 µM / viability at 1 µM / viability at 10 µM: Rattus norvegicus, 72 h
Method in brief: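 Toxicity screen: compounds added at 0.1, 1 and 10 µM to PDGF-AA-expanded OPCs in 96-well plates, 3-day incubation at 37 °C, 10% CO2, then alamarBlue 1:10 for 4 h with fluorescence readout. Results set screening doses of 10/2, 2/0.4 or 0.4/0.08 µM.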

[2] = tested on: acutely dissociated and purified rat OPCs; assay: Acute OL differentiation assay (MBP expression/cell, immunofluorescent image quantification); assay type: cell-based; conditions: for activation at 2 µM / activation at 10 µM / activation at 0.4 µM / EC50: Rattus norvegicus; for EC50: average EC50 for induction of OL differentiation from independent biological replicates, eight concentrations; for hit in OL differentiation assay, MRF-TMC: ● = confirmed hit in this paper's assay
Method in brief: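 This acute differentiation assay used purified rat OPCs from postnatal day 6–7 pups, seeded into PDL/laminin-coated 96-well plates in differentiation medium lacking PDGF and FGF. Compounds were applied in quadruplicate after a 1–2 h preincubation at 37 °C, 10 % CO2, with 0.1 % DMSO negative and 40 ng/ml T3 positive controls in eight wells. After fixation on DIV4, anti-MBP immunofluorescence images yielded MBP expression/cell.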

[3] = read-out: 0.1 µM (% DMSO), alamarBlue viability of expanded OPCs, compound at 0.1 µM, sheet All Tox data
[4] = read-out: 1 µM (% DMSO), alamarBlue viability of expanded OPCs, compound at 1 µM, sheet All Tox data
[5] = read-out: 10 µM (% DMSO), alamarBlue viability of expanded OPCs, compound at 10 µM, sheet All Tox data
[6] = 2 uM test compound, relative to quetiapine, sheet "All OLga data", read-out: OL differentiation, 2 uM (% Quet)
[7] = 10 uM test compound, relative to quetiapine, sheet "All OLga data", read-out: OL differentiation, 10 uM (% Quet)
[8] = alamarBlue viability of expanded OPCs, compound at 0.1 µM, relative to DMSO control
[9] = alamarBlue viability of expanded OPCs, compound at 1 µM, relative to DMSO control
[10] = alamarBlue viability of expanded OPCs, compound at 10 µM, relative to DMSO control
[11] = test compound at 2 uM, MBP expression relative to quetiapine, NCC library screen, sheet "All OLga data", read-out: 2 uM (% Quet)
[12] = test compound at 10 uM, MBP expression relative to quetiapine, NCC library screen, sheet "All OLga data", read-out: 10 uM (% Quet)
[13] = 0.4 uM test compound, relative to quetiapine, sheet "All OLga data", read-out: OL differentiation, 0.4 uM (% Quet)
[14] = read-out: 0.1 µM (% DMSO), alamarBlue viability, NCC library compound at 0.1 µM, sheet "All Tox data"
[15] = read-out: 1 µM (% DMSO), alamarBlue viability, NCC library compound at 1 µM, sheet "All Tox data"
[16] = read-out: 10 µM (% DMSO), alamarBlue viability, NCC library compound at 10 µM, sheet "All Tox data"

C[C@H]1C[C@H]2[C@@H]3CCC4=CC(=O)C=C[C@]4(C)[C@@]3(Cl)[C@@H](O)C[C@]2(C)[C@@]1(O)C(=O)CO [Beclomethasone]
0.1 µM (% DMSO) [1]: 90.7 % DMSO | 1 µM (% DMSO) [1]: 90.4 % DMSO | 10 µM (% DMSO) [1]: 81.7 % DMSO | 0.1 µM (% DMSO) ([1]; alamarBlue viability, NCC library compound at 0.1 µM, sheet "All Tox data"): 110.9 % DMSO | 1 µM (% DMSO) ([1]; alamarBlue viability, NCC library compound at 1 µM, sheet "All Tox data"): 114.8 % DMSO | 10 µM (% DMSO) ([1]; alamarBlue viability, NCC library compound at 10 µM, sheet "All Tox data"): 117.6 % DMSO | 2 uM (% Quet) ([2]; test compound at 2 uM, MBP expression relative to quetiapine, NCC library screen, sheet "All OLga data"): -121.4 % Quet | 2 uM (% Quet) ([2]; test compound at 2 uM, NCC library screen, sheet "All OLga data", relative to quetiapine): -1.4 % Quet | 10 uM (% Quet) ([2]; test compound at 10 uM, MBP expression relative to quetiapine, NCC library screen, sheet "All OLga data"): -191.3 % Quet | 10 uM (% Quet) ([2]; test compound at 10 uM, NCC library screen, sheet "All OLga data", relative to quetiapine): -5.2 % Quet

CCN(CC)CCOC(=O)C(O)(c1ccccc1)c1ccccc1 [Benactyzine]
viability at 0.1 µM ([1]; read-out: 0.1 µM (% DMSO)): 100% | viability at 1 µM ([1]; read-out: 1 µM (% DMSO)): 88.2% | viability at 10 µM ([1]; read-out: 10 µM (% DMSO)): 90% | activation at 2 µM ([2]; read-out: 2 uM (% Quet)): -1.9% | activation at 10 µM ([2]; read-out: 10 uM (% Quet)): -2.1%

CCOC(=O)[C@H](CCc1ccccc1)N[C@H]1CCc2ccccc2N(CC(=O)O)C1=O [Benazepril]
viability at 0.1 µM [1, 3]: 84.6% | viability at 1 µM [1, 4]: 88.2% | viability at 10 µM [1, 5]: 93.6% | activation at 2 µM [2, 6]: -27.7% | activation at 10 µM [2, 7]: -26.2%

NS(=O)(=O)c1cc2c(cc1C(F)(F)F)NC(Cc1ccccc1)NS2(=O)=O (centres unmarked) [Bendroflumethiazide]
0.1 µM (% DMSO) [1, 8]: 95.4 % DMSO | 1 µM (% DMSO) [1, 9]: 93.1 % DMSO | 10 µM (% DMSO) [1, 10]: 98.5 % DMSO | activation at 2 µM [2, 11]: -41.7% | activation at 10 µM [2, 12]: -47.6%

COC(=O)C1=C(C)NC(C)=C(C(=O)OC2CCCN(Cc3ccccc3)C2)C1c1cccc([N+](=O)[O-])c1 (centres unmarked) [Benidipine]
viability at 0.1 µM [1, 3]: 84.6% | viability at 1 µM [1, 4]: 93% | viability at 10 µM [1, 5]: 11.6% | activation at 0.4 µM [2, 13]: 7.1% | activation at 2 µM [2, 6]: 3.1%

CC(COc1ccccc1Cc1ccccc1)N1CCCCC1 (centres unmarked) [Benproperine, reference compound]
viability at 0.1 µM [1, 3]: 105% | viability at 1 µM [1, 4]: 123% | viability at 10 µM [1, 5]: 20.9% | activation at 0.4 µM [2, 13]: 82.1% | activation at 2 µM [2, 6]: 99.4% | EC50 [2]: 800 nM | hit in OL differentiation assay, MRF-TMC [2]: ●

CN1[C@@H]2CC[C@H]1C[C@@H](OC(c1ccccc1)c1ccccc1)C2 [Benzatropine]
0.1 µM (% DMSO) [1, 8]: 139.9 % DMSO | 1 µM (% DMSO) [1, 9]: 133.9 % DMSO | 10 µM (% DMSO) [1, 10]: 38.5 % DMSO | activation at 0.4 µM ([2]; test compound at 0.4 uM, MBP expression relative to quetiapine, NCC library screen, sheet "All OLga data", read-out: 0.4 uM (% Quet)): 123% | activation at 2 µM [2, 11]: 102%

CCc1oc2ccccc2c1C(=O)c1cc(Br)c(O)c(Br)c1 [Benzbromarone]
viability at 0.1 µM [1, 14]: 95.3% | viability at 1 µM [1, 15]: 93.2% | viability at 10 µM [1, 16]: 35.6% | activation at 0.4 µM ([2]; test compound at 0.4 uM, NCC library screen, sheet "All OLga data", relative to quetiapine, read-out: 0.4 uM (% Quet)): -1.1% | activation at 2 µM ([2]; test compound at 2 uM, NCC library screen, sheet "All OLga data", relative to quetiapine, read-out: 2 uM (% Quet)): 23.7%

CC(C)NCC(O)COc1ccc(CCOCC2CC2)cc1 (centres unmarked) [Betaxolol, reference compound]
viability at 0.1 µM [1, 14]: 102% | viability at 1 µM [1, 15]: 97.8% | viability at 10 µM [1, 16]: 104% | activation at 2 µM [2, 6]: 32.8% | activation at 10 µM [2, 7]: 51.8% | EC50 [2]: 4200 nM | hit in OL differentiation assay, MRF-TMC [2]: ●

CC(C[N+](C)(C)C)OC(N)=O (centres unmarked) [Bethanechol]
0.1 µM (% DMSO) [1, 8]: 87.6 % DMSO | 1 µM (% DMSO) [1, 9]: 93.0 % DMSO | 10 µM (% DMSO) [1, 10]: 88.2 % DMSO | activation at 2 µM [2, 11]: -1% | activation at 10 µM [2, 12]: -21.7%

CC(O)(CS(=O)(=O)c1ccc(F)cc1)C(=O)Nc1ccc(C#N)c(C(F)(F)F)c1 (centres unmarked) [Bicalutamide]
viability at 0.1 µM [1, 3]: 93.3% | viability at 1 µM [1, 4]: 96% | viability at 10 µM [1, 5]: 119% | activation at 2 µM [2, 6]: -3% | activation at 10 µM [2, 7]: 6.9%

c1ccc(-c2ccc(C(c3ccccc3)n3ccnc3)cc2)cc1 (centres unmarked) [Bifonazole, reference compound]
viability at 0.1 µM [1, 14]: 121% | viability at 1 µM [1, 15]: 187% | viability at 10 µM [1, 16]: 11.9% | activation at 0.4 µM [2, 13]: 67.3% | activation at 2 µM [2, 6]: 105% | EC50 [2]: 1700 nM | hit in OL differentiation assay, MRF-TMC [2]: ●
